From PMC11272733, “In vitro assessment of thyroid peroxidase inhibition by chemical exposure: comparison of cell models and detection methods” (Archives of Toxicology, 2024)
Like-named read-outs stand apart in the source and are kept apart here.

Experiments:
[1] = molecular target: T1, peroxidase activity (human TPO) in HEK-TPOA7 cell lysate (Homo sapiens, UniProt P07202); assay: TPO luminol (Lumi) assay, HEK-TPOA7 cell lysate; assay type: biochemical
T1 construct: We have transfected the full length of TPO, which is 933 amino acids; expressed in transfected cells; host or cells: HEK293T (clone HEK-TPOA7), lentiviral transduction, CMV promoter
T1 sequence (P07202 19-933): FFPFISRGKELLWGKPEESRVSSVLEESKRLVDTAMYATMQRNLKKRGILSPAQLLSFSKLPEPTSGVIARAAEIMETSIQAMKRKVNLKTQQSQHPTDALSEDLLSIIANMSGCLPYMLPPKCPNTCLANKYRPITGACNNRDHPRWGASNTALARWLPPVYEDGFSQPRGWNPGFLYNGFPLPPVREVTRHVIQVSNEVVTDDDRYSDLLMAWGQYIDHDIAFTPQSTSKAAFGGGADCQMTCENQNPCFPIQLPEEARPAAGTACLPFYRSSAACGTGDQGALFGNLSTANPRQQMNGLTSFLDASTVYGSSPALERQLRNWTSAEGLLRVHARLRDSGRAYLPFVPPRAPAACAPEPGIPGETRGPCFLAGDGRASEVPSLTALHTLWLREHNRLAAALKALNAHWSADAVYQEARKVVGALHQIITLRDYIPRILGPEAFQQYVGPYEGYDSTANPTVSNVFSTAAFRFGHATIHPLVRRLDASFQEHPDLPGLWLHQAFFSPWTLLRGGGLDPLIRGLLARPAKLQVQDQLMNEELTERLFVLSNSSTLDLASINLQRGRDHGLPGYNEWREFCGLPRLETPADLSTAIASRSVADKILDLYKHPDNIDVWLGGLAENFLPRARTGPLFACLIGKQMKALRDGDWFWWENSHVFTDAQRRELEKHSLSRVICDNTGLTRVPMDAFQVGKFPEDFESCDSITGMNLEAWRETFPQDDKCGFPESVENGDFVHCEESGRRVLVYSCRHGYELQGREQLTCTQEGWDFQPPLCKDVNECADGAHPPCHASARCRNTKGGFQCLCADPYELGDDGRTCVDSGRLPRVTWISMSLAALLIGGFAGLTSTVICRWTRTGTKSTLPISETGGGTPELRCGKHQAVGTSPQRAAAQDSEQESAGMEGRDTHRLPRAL
Text: (§1) A human TPO (hTPO) sequence was obtained from NCBI (NM_000547.5) and it was used for the production of lentiviral vector by VectorBuilder (Malvern, USA) containing the gene of interest under the transcriptional control of CMV promotor and EGFP gene linked with puromycin resistance gene under control of EFS promotor (pLV[Exp]-CMV > {NM_000547_5}-EFS > EGFP:T2A:Puro). The purified vector was used to produce lentiviral particles in Lenti-X cell line (TakaraBio Inc., Göteborg, Sweden). […] The medium was replaced 3 h after exposure. The conditioned lentiviral medium was harvested 48 and 72 h later, frozen and stored at − 80 °C. HEK293T cells were exposed to the conditioned lentiviral medium supplemented with Polybrene (10 µg/mL, Merck, Prague, Czech Republic). After 24 h, the medium was replaced with fresh medium with puromycin (Invivogen, Toulouse, France) as a selection factor. After the puromycin treatment, cells were sorted on a FACS sorter FACSAria Fusion (BD Biosciences, Prague, Czech Republic) to obtain GFP-expressing cell clones that were further characterized.

[2] = molecular target: T2, human TPO (HEK-TPOA7 cell lysate) (Homo sapiens, UniProt P07202); assay: AUR-TPO assay, HEK-TPOA7 cell lysate; assay type: biochemical
T2 construct: We have transfected the full length of TPO, which is 933 amino acids; expressed in transfected cells; host or cells: HEK293T (clone HEK-TPOA7), lentiviral transduction, CMV promoter
T2 sequence (P07202 19-933): T1 sequence (P07202 19-933)
Text: as §1
Lower final volume and concentration of H2O2 were used. […] Nonspecific influence of the chemicals themselves on the fluorescence signal was assessed by measuring the fluorescence signal after co-incubating the chemicals (30 min at 37 °C) with 0.3 µM Resorufin and 40 µM H2O2 with the same excitation/emission spectra as with the AUR.
Test of the effect of H2O2 concentration on the TPO activity measurement in the AUR assay: To assess the impact of H2O2 level on the AUR assay, a subset of chemicals (Table S6) was subjected to analysis at two H2O2 concentrations, 40 µM and 300 µM, to evaluate any variance in response.

[3] = system: peroxidase activity (TPO) in Nthy-ori 3-1 cell lysate
Protocol: (§2) Briefly, the cells were washed with phosphate-buffered saline (PBS), scraped, resuspended in PBS, and centrifuged for 5 min at 150 rcf. The supernatant was discarded, the pellet was lysed with 0.1% m/v sodium deoxycholate (DC, in PBS) and incubated on ice for 20 min. Lysed cells were centrifuged for 5 min at 12,000 rcf to extract the soluble protein fraction. The supernatant protein concentration was measured using the Bio-Rad DC-protein assay following the manufacturer’s protocol. The cell lysates were kept at − 80 °C for longer-term storage.
(§3) It was performed in the white 96-well plates with total volume of reaction mixture 200 μL per well containing 100 μL cell lysate with protein content of 0.12 mg/mL (final 0.06 mg/mL), 100 μl GNE solution [1 M glycine–NaOH (pH 9.0), 1 mM EDTA] with the test chemical in MeOH (1% MeOH final concentration). The plate was incubated for 30 min with gentle shaking at 37 °C.
(§4) For the data analysis, GraphPad Prism™ (GraphPad Software, San Diego, USA) was used for curve-fitting and IC50 or IC20 calculation. The signal (RLUs or fluorescence intensity) from the wells-containing cell lysate and chemical was background corrected (average RLUs or fluorescence intensity of lysate-free wells), then normalized to the solvent control (100% activity). Fold change of signal intensity was calculated by dividing the signal from cell lysate-containing wells by the signal from the background (average of cell lysate-free wells).

[4] = system: peroxidase activity (TPO) in Nthy-ori 3-1 cell lysate; set-up: method as in Jomaa et al. (2015); details: ref Jomaa et al. (2015); read-out: Lumi assay IC50, Nthy-ori 3-1; cited from earlier work
TPO (Nthy-ori 3-1) = system: TPO (Nthy-ori 3-1); set-up: method as in Jomaa et al. (2015); details: ref Jomaa et al. (2015); read-out: AUR assay IC50, Nthy-ori 3-1; cited from earlier work
TPO (CHO-TPO) = system: TPO (CHO-TPO); set-up: method as in Dong et al. (2020); details: ref Dong et al. (2020); read-out: AUR assay IC50, CHO-TPO; cited from earlier work
TPO (LentiX-TPO) = system: TPO (LentiX-TPO); set-up: method as in Dong et al. (2020); details: ref Dong et al. (2020); read-out: AUR assay IC50, LentiX-TPO; cited from earlier work
[5] = system: peroxidase activity (TPO) in FRTL-5 cell lysate; assay: TPO luminol (Lumi) assay, FRTL-5 cell lysate
Protocol: The FRTL-5 (RRID:CVCL_0265), a spontaneously immortalized rat thyroid follicular cell line obtained from Sigma-Aldrich, was cultured in Coon F12 medium (Sigma-Aldrich) supplemented with L-Glutamine, hydrocortisone, somatostatin, TSH and 10% FBS.
(§5) HEPES solution (Sigma-Aldrich) was added to balance the pH.
as §2, §3
For the data analysis, GraphPad Prism™ (GraphPad Software, San Diego, USA) was used for curve-fitting and IC50 or IC20 calculation. The signal (RLUs or fluorescence intensity) from the wells-containing cell lysate and chemical was background corrected (average RLUs or fluorescence intensity of lysate-free wells), then normalized to the solvent control (100% activity).

[6] = system: peroxidase activity in HEK293T cell lysate (no TPO expression); assay: TPO luminol (Lumi) assay, HEK293T cell lysate
Protocol: The HEK293T (RRID:CVCL_0063), a human embryonal kidney SV40 transformed immortalized cell line obtained from ATCC, as well as the derived TPO-transfected HEK293T cell line, were cultured in DMEM High Glucose media (Biosera, BioTech) supplemented with 10% FBS.
as §5, §2, §3, §4

[7] = system: TPO (rat thyroid microsomes); set-up: method as in Friedman et al. 2016; details: microsomes from 120 pooled rat thyroids; ref Friedman et al. 2016; cited from earlier work
[8] = system: peroxidase activity (TPO) in Nthy-ori 3-1 cell lysate; assay: TPO luminol (Lumi) assay, Nthy-ori 3-1 cell lysate; details: read-out: Lumi assay IC50, Nthy-ori 3-1
Protocol: as §2, §3, §4

[9] = Solubility of triclosan (PubChem); assay type: physicochemical; details: 20 °C; equivalent of 10 mg/L; ref PubChem
[10] = current study, n ≥ 3, hematin pre-treated cells, NA = not active up to the highest tested concentration, read-out: Lumi assay IC50, HEK-TPOA7
[11] = IC50, AUR assay, H2O2 300uM, HEK-TPOA7 lyzate, n=2, unit not given in Table S6
[12] = current study, n ≥ 3, pH 7.2, 40 µM H2O2, NA = not active up to the highest tested concentration, read-out: AUR assay IC50, HEK-TPOA7
[13] = lysate of cells with hematin pre-treatment, unit inferred, read-out: IC50, HEK-TPOA7, AUR assay, hematin +
[14] = lysate of cells without hematin pre-treatment, unit inferred, read-out: IC50, HEK-TPOA7, AUR assay, hematin -
[15] = read-out: IC50, FRTL-5, Lumi assay, hematin +, lysate of cells with hematin pre-treatment, unit inferred
[16] = read-out: Lumi assay IC50, FRTL-5, current study, n ≥ 3, NA = not active up to the highest tested concentration
[17] = IC20 shown where IC50 was not reached, read-out: AUR assay IC20, HEK-TPOA7
[18] = lysate of cells without hematin pre-treatment, unit inferred, read-out: IC50, HEK-TPOA7, Lumi assay, hematin -
[19] = read-out: Lumi assay IC50, HEK293T, current study, PTU n = 2
[20] = read-out: IC50, AUR assay, H2O2 300uM, HEK-TPOA7 lyzate, n=2, unit not given in Table S6

| IC50 [3] | Structure (SMILES) | IC50 [1, 10] | IC50 [2, 11] | IC50 [2, 12] | IC50 [2, 13] | IC50 [2, 14] | IC50 (TPO (CHO-TPO)) | IC50 (TPO (LentiX-TPO)) | IC50 [5, 15] | IC50 [5, 16] | IC50 [6, 19] | also measured |
| --- | --- | --- | --- | --- | --- | --- | --- | --- | --- | --- | --- | --- |
| 3.91 µM | Cn1cc[nH]c1=S [MMI, Methimazole, reference compound] | 3.24 µM | 1.33 µM | 1.5 µM | 1.5 µM | 1.12 µM | 0.49 µM | 0.23 µM | 3.59 µM | 3.69 µM |  | IC50 [4]: 4 µM; IC50 (TPO (Nthy-ori 3-1)): 2.7 µM |
|  | O=C(O)C(F)(F)C(F)(F)C(F)(F)C(F)(F)C(F)(F)C(F)(F)C(F)(F)F [PFOA, Perfluorooctanoic acid] |  |  |  |  |  |  |  |  |  |  | IC20 ([1]; IC20 shown where IC50 was not reached): 110 µM; IC20 [2, 17]: 5.15 µM |
| 120 µM | CC(C)(c1ccc(O)cc1)c1ccc(O)cc1 [BPA, Bisphenol A] | 130 µM | 10.9 µM |  | 10.6 µM | 8.29 µM |  |  | 166 µM | 143 µM | 122 µM | IC50 [1, 18]: 107 µM |
|  | Cc1cc(NS(=O)(=O)c2ccc(N)cc2)no1 [SMX, Sulfamethoxazol, reference compound] |  |  |  |  |  |  |  |  |  |  | IC20 ([2]; HEK-TPOA7 lyzate, n=2, starred chemicals, unit not given in Table S6, read-out: IC20, AUR assay, H2O2 300uM): 140 µM; IC20 [2, 17]: 101 µM |
|  | S=C1NCCN1 [ETU, Ethylene thiourea] |  |  |  |  |  |  |  |  |  |  | TPO inhibition in rat thyroid-based AUR assay (ToxCast) [7]: quantifiable IC50 |
|  | CC(C)(c1cc(Br)c(O)c(Br)c1)c1cc(Br)c(O)c(Br)c1 [TBBPA, Tetrabromobisphenol A] | 90.9 µM |  | 8.65 µM | 8.65 µM | 8.2 µM |  |  | 190 µM | 130 µM | 64.4 µM | IC50 [1, 18]: 107 µM; IC50 [2, 20]: 6.5 µM; IC50 ([6]; read-out: IC50, HEK293T, Lumi assay, hematin +, lysate of cells with hematin pre-treatment, unit inferred): 87.1 µM; IC50 [8]: 77.2 µM |
| 11.7 µM | CCCc1cc(=O)[nH]c(=S)[nH]1 [PTU, 6-propylthiouracil, reference compound] |  |  |  |  |  | 4.9 µM | 10.4 µM | 12.5 µM | 13.2 µM | 18.9 µM | IC50 [4]: 16.4 µM; IC50 (TPO (Nthy-ori 3-1)): 35.2 µM |
|  | Oc1cc(Cl)ccc1Oc1ccc(Cl)cc1Cl [TCS, Triclosan] | 38.4 µM | 165 µM |  | 197 µM |  | > 253 µM | > 253 µM | 46.2 µM | 67.9 µM | 47.8 µM | IC50 ([2]; HEK-TPOA7, pH 8.8 (SD = 14), read-out: AUR assay IC50 at higher pH): 72.7 µM; solubility (equivalent) [9]: 34.5 µM; IC50 [8]: 51 µM |

| Structure (SMILES) | IC50 [3] | IC50 [1, 10] | IC50 [2, 11] | IC50 [2, 12] | IC50 [2, 13] | IC50 [2, 14] | IC50 (TPO (CHO-TPO)) | IC50 (TPO (LentiX-TPO)) | IC50 [5, 15] | IC50 [5, 16] | IC50 [6, 19] | also measured |
| --- | --- | --- | --- | --- | --- | --- | --- | --- | --- | --- | --- | --- |
| Oc1cccc(O)c1 [RSC, Resorcinol] | 13.8 µM | 17.9 µM | 0.61 µM | 0.358 µM | 0.36 µM | 0.36 µM | 0.05 µM | 0.06 µM | 13.9 µM | 15.7 µM |  | IC50 ([2]; IC50, AUR assay, H2O2 40uM, HEK-TPOA7 lyzate, n=2, unit not given in Table S6): 0.36 µM |
| O=C(c1ccc(O)cc1O)c1ccc(O)cc1O [BP2, 2,2′-4,4′-tetrahydroxy benzophenone] | 38.5 µM | 20.2 µM |  | 0.56 µM | 0.56 µM | 0.48 µM | 0.2 µM | 0.24 µM | 31.4 µM | 29.6 µM |  | IC50 [2, 20]: 0.64 µM |
